Experiments:
trypsin = experiment: inhibition of the amidolytic activity of trypsin (chromogenic substrate S-2251); format: biochemical; settings: substrate S-2251, 200 and 750 μM, otherwise analogous to thrombin
human thrombin = human thrombin (Homo sapiens, UniProt P00734); experiment: inhibition of the amidolytic activity of thrombin (chromogenic substrate S-2238); format: biochemical; settings: for Ki: human thrombin 0.5 nM, substrate S-2238, pH 7.8, room temperature; for q (ratio of the inhibition of trypsin to the inhibition of thrombin): specificity: Ki trypsin / Ki thrombin
Description: A differential inhibition of thrombin and other serine proteases by the above compounds is desirable in order to obtain compounds having as high a specificity as possible and at the same time to avoid possible side-effects.
Specific chromogenic peptide substrates can be used to determine the inhibition of the catalytic activity of the above proteases. The inhibition of the amidolytic activity of thrombin and trypsin by the above guanidines was determined as described hereinafter.
The measurements were carried out on microtitre plates at room temperature. For this, in each well of the plate 150 μl of buffer (50 mM Tris, 100 mM NaCl, 0.1% polyethylene glycol; pH 7.8) were mixed with 50 μl of the inhibitor dissolved in DMSO and diluted in the buffer, and 25 μl of human thrombin (0.5 nM final conc.) were added. After incubation for 10 minutes the reaction was started by the addition of chromogenic substrate S-2238 (H-D-Phe-Pip-Arg-paranitroaniline from Kabivitrum; 10 or 50 μm final conc.) and the hydrolysis of the substrate was followed spectrophotometrically on a kinetic microtiter plate reader for 5 minutes. After graphical presentation of the inhibition curves the Ki values were determined according to the method described in Blochem. J. 55, 1955, 170-171.

| Compound | Ki (trypsin) [µM] | Ki (human thrombin) [µM] | q (ratio of the inhibition of trypsin to the inhibition of thrombin) (human thrombin) |
| --- | --- | --- | --- |
| CCOC(=O)CN(C(=O)[C@H](CC(=O)NCC1CN(C(=N)N)CCO1)NC(=O)OCc1ccccc1)C1CC1 (stereo partly drawn) [Example 5a, ethyl [[(S)-3-[4-(amino-imino-methyl)-morpholin-2-ylmethylcarbamoyl]-2-benzyloxycarbonylaminopropionyl]-cyclopropyl-amino]-acetate] | 231 | 8.9 | 26 |
| NC(=NO)N1CCC[C@@H](CNC(=O)C[C@H](NS(=O)(=O)c2ccc3ccccc3c2)C(=O)N(CCNC(=O)c2cnccn2)C2CC2)C1 [Example 22, (S)-N4-[(S)-1-(amino-hydroxyimino-methyl)-piperidin-3-ylmethyl]-N1-cyclopropyl-2-(naphthalen-2-ylsulphonylamino)-N1-[2-(pyrazin-2-ylcarbonylamino)-ethyl]-succinamide] | 16.5 | 0.0015 | 11000 |
| CCOC(=O)CN(C(=O)[C@H](CC(=O)NC[C@@H]1CCCN(C(=N)N)C1)NC(=O)OCC1CCCCC1)C1CC1 [Example 7, ethyl [[(S)-3-[(S)-1-(amino-imino-methyl)-piperidin-3-ylmethylcarbamoyl]-2-cyciohexylmethoxycarbonylamino-propionyl]-cyclopropyl-amino]-acetate] | 50 | 2 | 25 |
| N=C(N)N1CCC[C@@H](CNC(=O)C[C@H](NC(=O)OCc2ccccc2)C(=O)N(CC(=O)O)C2CC2)C1 [Example 3, [[(S)-3-[(S)-1-(amino-imino-methyl)-piperidin-3-ylmethylcarbamoyl]-2-benzyloxycarbonylamino-propionyl]-cyclopropylamino]-acetic acid] | 19 | 0.012 | 1583 |
| CCCCN1CC(=O)N[C@@H](CC(=O)NC[C@@H]2CCCN(C(=N)N)C2)C1=O [Example 18, N-[(S)-1-(amino-imino-methyl)-piperidin-3-ylmethyl]-2-[(S)-2,6-dioxo-4-butyl-piperazin-2-yl]-acetamide] | 590 | 2.2 | 268 |
| CCCCN(CCC(=O)O)C(=O)[C@H](CC(=O)NC[C@@H]1CCCN(C(=N)N)C1)NC(=O)OCc1ccccc1 [Example 4c, 3-[[(S)-3-[(S)-1-(amino-imino-methyl)-piperidin-3-ylmethylcarbamoyl]-2-benzyloxycarbonylamino-propionyl]-butyl-amino]propionic acid] | 100 | 0.3 | 333 |
| N=C(N)N1CCC[C@@H](CNC(=O)C[C@H](NS(=O)(=O)N2CCOCC2)C(=O)N(CCNC(=O)c2cnccn2)C2CC2)C1 [Example 24, (S)-N4-[(S)-1-(amino-imino-methyl)-piperidin-3-ylmethyl]-N1-cyclopropyl-2-morpholin-4-ylsulphonylamino-N1-(2-pyrazin-2-ylcarbonylamino-ethyl)-succinamide] | 7.1 | 0.0012 | 5917 |
| N=C(N)N1CCC[C@@H](CNC(=O)C[C@H]2C(=O)N(C3CC3)CC(=O)N2S(=O)(=O)c2ccc3ccccc3c2)C1 [Example 15, N-[(S)-1-(amino-imino-methyl)-piperidin-3-ylmethyl]-2-[(S)-4-cyclopropyl-1-naphthalen-2-ylsulphonyl-3,6-dioxo-piperazin-2-yl]-acetamide] | 13 | 0.0018 | 7222 |
| N=C(N)N1CCC[C@@H](CNC(=O)C[C@H](NC(=O)c2ccccc2)C(=O)N(CC(=O)O)C2CC2)C1 [Example 14d, [[(S)-3-[(S)-1-(amino-imino-methyl)-piperidin-3-ylmethylcarbarnoyl]-2-benzoylamino-propionyl]-cyclopropyl-amino]-acetic acid] | 83 | 0.25 | 332 |
| CCCCCC(=O)N[C@@H](CC(=O)NC[C@@H]1CCCN(C(=N)N)C1)C(=O)N(CC(=O)O)C1CC1 [Example 14b, [[(S)-3-[(S)-1-(amino-imino-methyl)-piperidin-3-ylmethylcarbamoyl]-2-hexanoylamino-propionyl]-cyclopropyl-amino]-acetic acid] | 25 | 0.036 | 694 |
| N=C(N)N1CCC[C@@H](CNC(=O)C[C@H](NC(=O)OCC2CCCCC2)C(=O)N(CC(=O)O)C2CC2)C1 [Example 8, [[(S)-3-[(S)-1-(Amino-imino-methyl)-piperidin-3-ylmethylcarbamoyl]-2-cyclohexylmethoxycarbonylamino-propionyl]cyclopropyl-amino]-acetic acid] | 27 | 0.017 | 1588 |
| CCOC(=O)CN(C(=O)[C@H](CC(=O)NC[C@@H]1CCCN(C(=N)N)C1)NC(=O)c1ccccc1)C1CC1 [Example 13d, ethyl [[(S)-3-[(S)-1-(amino-imino-methyl)-piperidin-3-ylmethylcarbamoyl]-2-benzoylamino-propionyl]-cyclopropyl-amino]-acetate] | 23.5 | 4.7 | 5 |
| N=C(N)N1CCC[C@@H](CNC(=O)C[C@H](NC(=O)Cc2ccccc2)C(=O)N(CC(=O)O)C2CC2)C1 [Example 14e, [[(S)-3-[(S)-1-(amino-imino-methyl)-piperidin-3-ylmethylcarbamoyl]-2-benzylcarbonylamino-propionyl]-cyclopropyl-amino]acetic acid] | 69 | 0.081 | 852 |
| N=C(N)N1CCC[C@@H](CNC(=O)C[C@H](NC(=O)c2cc(Cl)ccn2)C(=O)N(CC(=O)O)C2CC2)C1 [Example 14c, [[(S)-3-[(S)-1-(amino-imino-methyl)-piperidin-3-ylmethylcarbarnoyl]-2-(4-chloro-pyridin-2-ylcarbonylamino)-propionyl]cyclopropyl-amino]-acetic acid] | 50 | 0.057 | 877 |
| CCCCN(CC(=O)OCC)C(=O)[C@H](CC(=O)NCC1CN(C(=N)N)CCO1)NC(=O)OCc1ccccc1 (stereo partly drawn) [Example 5b, ethyl [[(S)-3-[4-(amino-imino-methyl)-morpholin-2-ylmethylcarbamoyl]-2-benzyloxycarbonylaminopropionyl]-butyl-amino]-acetate] | 150 | 0.03 | 5000 |
| CCOC(=O)CN(C(=O)[C@H](CC(=O)NC[C@@H]1CCCN(C(=N)N)C1)NC(=O)NCc1ccccc1)C1CC1 [Example 9a, ethyl [[(S)-3-[(S)-1-(amino-imino-methyl)-piperidin-3-ylmethylcarbamoyl]-2-(3-benzyi-ureido)-propionyl]-cyclopropylamino]-acetate] | 95 | 1.3 | 73 |
| N=C(N)N1CCOC(CNC(=O)C[C@H](NC(=O)OCc2ccccc2)C(=O)N(CCC(=O)O)C2CC2)C1 (stereo partly drawn) [Example 6c, 3-[[(S)-3-[4-(amino-imino-methyl)-morpholin-2-ylmethylcarbamoyl]-2-benzyloxycarbonylamino-propionyl]-cyclopropyl-amino]propionic acid] | 92 | 0.33 | 279 |
| N=C(N)N1CCC[C@@H](CNC(=O)C[C@H](NC(=O)OCc2ccccc2)C(=O)N(CCC(=O)O)C2CC2)C1 [Example 4a, 3-[[(S)-3-[(S)-1-(Amino-imino-methyl)-piperidin-3-ylmethylcarbamoyl]-2-benzyloxycarbonylamino-propionyl]-cyclopropylamino]-propionic acid] | 83 | 0.079 | 1051 |
| CCCCN(CC(=O)O)C(=O)[C@H](CC(=O)NC[C@@H]1CCCN(C(=N)N)C1)NC(=O)OCc1ccccc1 [Example 4b, [[(S)-3-[(S)-1-(amino-imino-methyl)-piperidin-3-ylmethylcarbamoyl]-2-benzyloxycarbonylamino-propionyl]-butyl-amino]-acetic acid] | 28 | 0.064 | 438 |
| N=C(N)N1CCC[C@@H](CNC(=O)C[C@H](NC(=O)CSc2ncccn2)C(=O)N(CCNC(=O)c2cnccn2)C2CC2)C1 [Example 20, (S)-N4-[(S)-1-(amino-imino-methyl)-piperidin-3-ylmethyl]-N1-cyclopropyl-N1-(2-pyrazin-2-ylcarbonylamino-ethyl)-2-pyrimidin-2-ylsulphanylacetylamino-succinamide] | – | 0.00086 | 5233 |
| N=C(N)N1CCOC(CNC(=O)C[C@H](NC(=O)OCc2ccccc2)C(=O)N(CC(=O)O)C2CC2)C1 (stereo partly drawn) [Example 6a] | – | 0.45 | 311 |
| N=C(N)N1CCC[C@@H](CNC(=O)C[C@H](NC(=O)COc2ccccc2)C(=O)N(CCNC(=O)c2cnccn2)C2CC2)C1 [Example 21d, N4-[(S)-1-(amino-imino-methyl)-piperidin-3-ylmethyl]N1-cyclopropyl-2-phenoxyacetylamino-N1-(2-pyrazin-2-ylcarbonylamino-ethyl)-succinamide] | – | 0.0013 | 19231 |
